Experimental data published in PMC9127186, “Molecular Basis Underlying Hepatobiliary and Renal Excretion of Phenolic Acids of Salvia miltiorrhiza Roots (Danshen)” (Frontiers in Pharmacology, 2022).

Key:
[1] = target: T1, rat Ntcp (Rattus norvegicus, UniProt P26435); test: Cellular transport assay, HEK-293 cells expressing rat Ntcp; settings: Danshen phenolic acid at 100 μM final concentration, 10 min; rat Ntcp-transfected vs mock cells
T1 sequence (P26435 1-362): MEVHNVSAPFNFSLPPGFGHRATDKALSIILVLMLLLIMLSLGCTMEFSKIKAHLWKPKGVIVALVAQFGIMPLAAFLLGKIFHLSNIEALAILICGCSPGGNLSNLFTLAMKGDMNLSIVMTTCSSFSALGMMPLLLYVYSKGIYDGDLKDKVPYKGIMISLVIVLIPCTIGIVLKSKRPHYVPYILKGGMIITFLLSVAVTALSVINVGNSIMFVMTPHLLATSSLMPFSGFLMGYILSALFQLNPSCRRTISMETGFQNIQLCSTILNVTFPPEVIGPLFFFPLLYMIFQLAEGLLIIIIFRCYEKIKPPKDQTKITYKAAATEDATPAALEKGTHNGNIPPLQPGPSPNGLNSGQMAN

[2] = target: T2, human OCT3 (Homo sapiens, UniProt O75751); test: Cellular transport assay, HEK-293 cells expressing human OCT3; settings: Danshen phenolic acid at 100 μM final concentration, 10 min; human OCT3-transfected vs mock cells
T2 sequence (O75751 1-556): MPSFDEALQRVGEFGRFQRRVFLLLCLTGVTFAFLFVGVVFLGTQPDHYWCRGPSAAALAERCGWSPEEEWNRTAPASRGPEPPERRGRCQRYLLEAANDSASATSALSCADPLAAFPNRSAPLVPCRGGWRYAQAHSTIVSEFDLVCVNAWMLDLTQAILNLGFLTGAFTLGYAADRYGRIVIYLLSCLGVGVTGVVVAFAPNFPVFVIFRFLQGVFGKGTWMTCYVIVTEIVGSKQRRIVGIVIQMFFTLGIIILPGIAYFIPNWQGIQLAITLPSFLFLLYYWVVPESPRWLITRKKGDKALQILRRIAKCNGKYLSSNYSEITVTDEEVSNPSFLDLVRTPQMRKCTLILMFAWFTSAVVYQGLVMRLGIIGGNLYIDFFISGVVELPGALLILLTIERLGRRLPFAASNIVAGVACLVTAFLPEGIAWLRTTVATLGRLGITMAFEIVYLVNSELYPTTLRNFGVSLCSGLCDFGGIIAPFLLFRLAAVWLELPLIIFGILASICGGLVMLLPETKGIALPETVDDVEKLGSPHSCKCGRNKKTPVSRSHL

[3] = target: T3, human OCT2 (Homo sapiens, UniProt O15244); test: Cellular transport assay, HEK-293 cells expressing human OCT2; settings: Danshen phenolic acid at 100 μM final concentration, 10 min; human OCT2-transfected vs mock cells
T3 sequence (O15244 1-555): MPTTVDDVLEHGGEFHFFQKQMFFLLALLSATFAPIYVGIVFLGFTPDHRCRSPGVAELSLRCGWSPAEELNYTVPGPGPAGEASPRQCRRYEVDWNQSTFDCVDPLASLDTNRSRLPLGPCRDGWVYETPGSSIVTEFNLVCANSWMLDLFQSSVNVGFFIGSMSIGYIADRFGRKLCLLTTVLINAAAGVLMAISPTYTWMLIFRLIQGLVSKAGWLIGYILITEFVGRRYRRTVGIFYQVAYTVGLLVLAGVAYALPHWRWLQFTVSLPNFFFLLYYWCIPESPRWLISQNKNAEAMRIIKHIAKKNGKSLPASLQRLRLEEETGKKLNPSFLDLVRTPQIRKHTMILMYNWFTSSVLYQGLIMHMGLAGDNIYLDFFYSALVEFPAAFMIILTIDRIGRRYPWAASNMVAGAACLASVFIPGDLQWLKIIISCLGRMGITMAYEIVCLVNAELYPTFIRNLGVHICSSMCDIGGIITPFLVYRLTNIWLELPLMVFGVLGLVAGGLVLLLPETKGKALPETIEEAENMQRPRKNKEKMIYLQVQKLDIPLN

[4] = target: T4, rat Octn2 (Rattus norvegicus, UniProt O70594); test: Cellular transport assay, HEK-293 cells expressing rat Octn2; settings: Danshen phenolic acid at 100 μM final concentration, 10 min; rat Octn2-transfected vs mock cells
T4 sequence (O70594 1-557): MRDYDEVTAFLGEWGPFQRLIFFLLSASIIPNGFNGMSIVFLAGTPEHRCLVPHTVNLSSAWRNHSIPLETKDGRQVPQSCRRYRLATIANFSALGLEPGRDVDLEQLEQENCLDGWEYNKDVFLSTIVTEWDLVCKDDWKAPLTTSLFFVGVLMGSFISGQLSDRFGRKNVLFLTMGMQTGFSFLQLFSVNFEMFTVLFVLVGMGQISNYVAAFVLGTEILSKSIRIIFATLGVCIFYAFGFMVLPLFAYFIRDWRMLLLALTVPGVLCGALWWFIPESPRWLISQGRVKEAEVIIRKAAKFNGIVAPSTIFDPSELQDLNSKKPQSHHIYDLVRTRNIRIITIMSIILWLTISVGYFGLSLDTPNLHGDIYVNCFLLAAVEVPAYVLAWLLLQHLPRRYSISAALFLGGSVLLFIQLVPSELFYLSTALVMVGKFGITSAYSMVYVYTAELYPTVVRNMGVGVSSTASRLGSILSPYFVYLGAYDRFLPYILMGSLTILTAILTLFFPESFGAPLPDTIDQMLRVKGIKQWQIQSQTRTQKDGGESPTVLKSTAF

[5] = set-up: method as in Lu et al., 2008; settings: ref Lu et al., 2008; cited from earlier work

Row | Compound | TransportTC/TransportMC ratio (net transport ratio) [1] | TransportTC/TransportMC ratio (net transport ratio) [2] | TransportTC/TransportMC ratio (net transport ratio) [3] | TransportTC/TransportMC ratio (net transport ratio) [4] | membrane permeability [5]
1 | O=C(/C=C/c1ccc(O)c2c1[C@H](C(=O)O)[C@@H](c1ccc(O)c(O)c1)O2)O[C@H](Cc1ccc(O)c(O)c1)C(=O)O [Lithospermic acid, lithospermic acid] | 1.71 ± 0.15 | 0.84 ± 0.15 | 0.89 ± 0.31 | 0.95 ± 0.11 | 
2 | O=C(O)c1ccc(O)c(O)c1 [Protocatechuic acid, protocatechuic acid] | 1.04 ± 0.27 | 0.94 ± 0.24 | 0.75 ± 0.35 | 0.91 ± 0.17 | fairly good
3 | O=C(/C=C/c1ccc(O)c(O)c1)O[C@H](Cc1ccc(O)c(O)c1)C(=O)O [Rosmarinic acid, rosmarinic acid] |  | 0.75 ± 0.23 |  |  | poor
4 | O=C(O)Cc1c(/C=C/C(=O)O[C@H](Cc2ccc(O)c(O)c2)C(=O)O)ccc(O)c1O [Salvianolic acid D, salvianolic acid D] | 1.49 ± 0.23 | 0.94 ± 0.32 | 0.85 ± 0.26 | 1.12 ± 0.22 | poor
5 | salvianolic acid B | 1.90 ± 0.02 | 0.75 ± 0.38 | 0.75 ± 0.23 | 1.25 ± 0.21 | 
